Test [1] has as its target α (avr-14b) GluClRs (Haemonchus contortus, UniProt O46124). Nature of the test: Two-electrode voltage clamp in oocytes, α GluClRs. Type of test: cell-based, H. contortus. The procedure:
cDNAs encoding the α (avr-14b) (pcDNA 3.1+) or β (pUNIV) GluClR subunits of H. contortus were nuclear injected into oocytes (NASCO, WI USA) or transfected into HEK293AD cells (CellBank Australia) using a calcium phosphate-DNA co-precipitate method. Synapse formation between neurons and HEK293 cells was promoted by co-transfecting neuroligin 2A or 1B and the cDNA encoding CD4 surface antigen was also added to the transfection mixture so as to identify transfected cells. The oocytes and HEK cells were used for experiments 2–3 days after the introduction of the cDNAs. All experiments were done at room temperature (22 ± 1°C).
Xenopus laevis oocytes were harvested by surgical incision. The oocytes were then defolliculated with 1.5 mg/ml collagenase for 2 hours. Free oocytes were rinsed with calcium-free OR-2 solution containing (in mM) 82.5 NaCl, 2 KCl, 1 MgCl2, 5 HEPES, pH 7.4 and mature stage V or VI oocytes were isolated for experiments. The DNAs coding for α and β subunits were nuclear injected into the oocytes using a Nanoliter 2000 microinjector (WPI Inc) at a ratio of (α:β), 1:0, 0:1, 1:1 and 1:50. The total amount of injected DNA in all combinations was 400 ng ml^−1, including the 1:50 (α:β) combination (8 ng of DNA encoding the α and 392 ng of DNA encoding β subunits). Injected oocytes were incubated in ND96 storage solution (in mM) 96 NaCl, 2 KCl, 1 MgCl2.6H2O, 1.8 CaCl2, 5 HEPES, 50 μg ml^−1 gentamicin, 2.5 sodium pyruvate, 0.5 theophylline, pH 7.4 at 16°C for 2–3 days before experiment.
For the two-electrode voltage clamp recordings, each oocyte was secured in a cell bath that was continually perfused with ND96 recording solution (ND96 storage solution without pyruvate, theophylline and gentamicin). […] The two microelectrodes contained 3 M KCl and had resistances of 0.2–2 MΩ. Recordings were done using Clampex 10.2 software (Molecular Devices) at a clamped voltage of −40 mV. Currents were low-pass filtered at 200 Hz, sampled at 2 kHz using a Gene Clamp 500B amplifier and digitised by a Digidata 1440A interface. The IVM (IVM B1a) concentration-response experiments were standardised by using an application protocol that consisted of applying increasing concentrations of IVM for, respectively, 3 min, 3 min, 3 min, 2 min, 1 min, 1 min and 0.5 min.
Group data were analysed in SigmaPlot 13.0 using one-way ANOVAs, where p < 0.05 was taken as the significance threshold and expressed as mean ± SEM. Tests for normally distributed data are built into the SigmaPlot software. Confocal images were captured and analysed with Zen 2012 SP2 (Zeiss) software. Oocyte concentration-response data were fit to a Hill equation to obtain an EC50 and Hill co-efficient for each oocyte recording. These parameters were then averaged across multiple oocyte experiments of the same type. Single channel recordings were analysed in QuB software. […] The selected critical times eliminated periods of receptor desensitisation while retaining singe receptor active periods. Mean active period duration and intra-activation open probability was estimated from each patch. Group means were obtained by averaging across multiple patches for each recording condition.
A general note: In two-electrode clamp one electrode senses voltage and the other passes current.

Test [2] addresses β GluClRs (Haemonchus contortus, UniProt P91730). Nature of the test: Single channel recording, outside-out patches, β GluClRs. The format is cell-based, H. contortus. Particulars: 2 μM glutamate plus 5 nM IVM. From the text:
To explore whether a similar mechanism applies to β-containing GluClRs, we recorded single receptor currents in excised patches from cells transfected with either the α and β subunits (1:1) or the β subunit alone. […] By contrast, patches from cells transfected with the β subunit alone invariably opened to an amplitude of 0.4 pA (Fig 6C). Amplitude histograms confirmed two amplitude levels for αβ GluClRs and a single amplitude for the β GluClRs (Fig 6D). […] We infer that the αβ GluClRs that open to 0.7 pA likely contain a greater proportion of β subunits. This is consistent with β GluClRs having the smallest amplitude and α GluClRs having the greatest amplitude (1.8 pA) under similar recording conditions. The calculated conductance values for the corresponding amplitudes for αβ GluClRs was 15.2 pS and 8.9 pS and for the β GluClRs was 5.1 pS.
Single-channel currents were recorded from outside-out excised patches at a clamped potential of −70 mV. The single channel conductance was calculated by dividing the mean current by the net driving force at a clamped potential of ‐70 mV, after accounting for reversal and liquid junction potentials. Excised patches were continuously perfused via a gravity-fed double-barrelled glass tube, which contained extracellular bath solution containing (in mM), 140 NaCl, 5 KCl, 1 MgCl2, 2 CaCl2, 10 HEPES, and 10 D-glucose and titrated to pH 7.4. Glutamate and IVM were dissolved in this extracellular solution. Recording electrodes were pulled from borosilicate glass (G150F-3; Warner Instruments), coated with a silicone elastomer (Sylgard-184; Dow Corning) and heat-polished to a final tip resistance of 4–15 MΩ when filled with an intracellular solution containing (in mM) 145 CsCl, 2 MgCl2, 2 CaCl2, 10 HEPES, and 5 EGTA, pH 7.4. […] A 10 mM stock of IVM (Sigma-Aldrich) was dissolved in 100% DMSO and kept frozen at ‐20°C. Fresh working stocks of IVM at 5 nM were prepared by dissolving the appropriate quantity directly in extracellular solution. 100% DMSO when dissolved in extracellular solution alone at the same concentration as was present in working solutions containing 5 nM IVM had no effect on patches excised from cells transfected with GluClRs or from untransfected cells.
Currents were recorded using an Axopatch 200B amplifier (Molecular Devices), filtered at 5 kHz and digitized at 20 kHz using Clampex (pClamp 10 suite, Molecular Devices) via a Digidata 1440A digitizer.
Group data were analysed in SigmaPlot 13.0 using one-way ANOVAs, where p < 0.05 was taken as the significance threshold and expressed as mean ± SEM. Tests for normally distributed data are built into the SigmaPlot software. Confocal images were captured and analysed with Zen 2012 SP2 (Zeiss) software. Oocyte concentration-response data were fit to a Hill equation to obtain an EC50 and Hill co-efficient for each oocyte recording. These parameters were then averaged across multiple oocyte experiments of the same type. Single channel recordings were analysed in QuB software. […] Patches yielded between 30–250 individual active periods. […] The selected critical times eliminated periods of receptor desensitisation while retaining singe receptor active periods. Mean active period duration and intra-activation open probability was estimated from each patch. Group means were obtained by averaging across multiple patches for each recording condition.

The structures appear in SMILES notation.

The term EC50 denotes the concentration needed to bring the measured effect to its halfway point.

α (avr-14b) GluClRs, sequence (O46124 entry or part of it): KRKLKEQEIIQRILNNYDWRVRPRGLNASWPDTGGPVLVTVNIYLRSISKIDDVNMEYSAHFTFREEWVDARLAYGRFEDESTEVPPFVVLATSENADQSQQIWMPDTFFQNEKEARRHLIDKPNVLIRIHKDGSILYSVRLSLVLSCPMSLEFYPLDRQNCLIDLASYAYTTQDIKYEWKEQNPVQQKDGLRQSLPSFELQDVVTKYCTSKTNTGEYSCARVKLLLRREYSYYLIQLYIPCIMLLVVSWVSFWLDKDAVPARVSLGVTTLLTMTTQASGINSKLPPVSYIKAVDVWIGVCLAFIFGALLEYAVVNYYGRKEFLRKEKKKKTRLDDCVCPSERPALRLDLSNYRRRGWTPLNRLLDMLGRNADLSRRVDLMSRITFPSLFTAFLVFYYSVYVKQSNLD
β GluClRs, sequence (P91730 19-432): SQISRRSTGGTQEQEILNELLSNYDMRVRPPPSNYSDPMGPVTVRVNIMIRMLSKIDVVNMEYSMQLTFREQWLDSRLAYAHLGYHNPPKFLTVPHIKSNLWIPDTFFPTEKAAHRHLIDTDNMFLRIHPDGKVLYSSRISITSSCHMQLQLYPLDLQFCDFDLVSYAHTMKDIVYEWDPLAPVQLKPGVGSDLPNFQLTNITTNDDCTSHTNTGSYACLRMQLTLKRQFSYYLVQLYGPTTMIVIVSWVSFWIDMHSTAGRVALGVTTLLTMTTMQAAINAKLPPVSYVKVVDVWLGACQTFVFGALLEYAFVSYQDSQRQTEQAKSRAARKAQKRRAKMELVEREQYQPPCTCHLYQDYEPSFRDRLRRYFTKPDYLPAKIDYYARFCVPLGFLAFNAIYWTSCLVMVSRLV

For `CC[C@H](C)[C@H]1O[C@]2(CC[C@@H]1C)C[C@@H]1C[C@@H](C/C=C(\C)[C@@H](O[C@H]3C[C@H](OC)[C@@H](O[C@H]4C[C@H](OC)[C@@H](O)[C@H](C)O4)[C@H](C)O3)[C@@H](C)/C=C/C=C3\CO[C@@H]4[C@H](O)C(C)=C[C@@H](C(=O)O1)[C@]34O)O2` [IVM, Ivermectin], the EC50 in test [1] (EC50, oocytes, holding potential −40 mV) was 22 ± 3 nM. Also, the Hill co-efficient in test [1] (oocytes, −40 mV) was found to be 1.9 ± 0.1. Also, in test [1] (read-out: maximal response, % of that seen with saturating glutamate), the Emax came to 59%. For the same compound, in test [2], the “intra-activation open probability (PO)” value came out at 0.62 ± 0.04 and the “mean active period duration” value is reported as 120 ± 21 ms.

The values above are taken from paper PMC6368337, “GluClR-mediated inhibitory postsynaptic currents reveal targets for ivermectin and potential mechanisms of ivermectin resistance” (PLoS Pathogens, 2019).
